Laboratory results from patent US12268739B2, “Use of toll-like receptor 2 (TLR-2) agonist for modulating human immune response” (Children's Medical Center Corporation, priority 2018, dated 2025).

Columns and labels:
[1] = test system: THP1-NF-κB cells; assay: THP1-NF-κB cell stimulation for 24 hours, secreted luciferase luminescence; type: cell-based, human; details: NF-κB-dependent luminescence, 24 hours; for THP1 cells (relative luminescence units, N = 4) Comp at 25 uM: compound at 25 uM; for THP1 cells (relative luminescence units, N = 4) Comp at 100 uM: compound at 100 uM
Protocol: (§1) THP-1 Cell Line and Culture Conditions. The THP1-Lucia™ cell line was obtained from Invivogen (San Diego, CA). THP1-Lucia cells, which are human monocytic cells derived from the blood of a child with leukemia, contain an NF-kB-inducible Luc reporter construct. This allows NF-kB activation to be measured by quantifying the luminescence from the secreted luciferase enzyme. THP1-Lucia cells were cultured in RPMI 1640 supplemented with 10% non-heat inactivated fetal bovine serum (FBS), 10 mM HEPES, 1.0 mM sodium pyruvate, 50 ug/ml Pen-Strep, and 100 ug/mL Normocin™. Once cultured, the cells were stored in a 37° C. incubator with 5% CO2 and a humidified atmosphere. Cells were passaged every 2-3 days and not allowed to exceed a concentration of 2.0×10^6 cells/ml media.
(§2) PBMCs were isolated from blood using a Ficoll density gradient. PBMCs either used fresh or were stored at 5×10^7 cells per vial in 1 mL RPMI containing 20% autologous plasma and 10% DMSO at −80° C. until use. Stimulation plates were prepared by transferring 0.66 μl of DMSO-dissolved compounds (30 or 7.5 mM) to each well of a round bottom 96-well plate. PBMCs isolated from human adult donors or THP1-NF-κB cells were resuspended at a concentration of 10^5 cells/200 μl of RPMI supplemented with 10% of platelet-poor plasma or THP1 culture medium, respectively. 200 μl of the cell suspension were transferred to each well resulting in a final compound concentration of 100 or 25 μM. After 24 hours of incubation (37° C., 5% CO2), plates were spun down (500×g, room temperature, 5 minutes) and supernatants were harvested for further analysis.

[2] = test system: human adult PBMCs; assay: Cytokine production by stimulated human adult PBMCs (ELISA / multiplex); type: cell-based; details: human adult PBMCs, 24 hours, compounds at 100 µM (FIG. 7), ELISA, median
Protocol: ELISAs and Multiplex-Analyte Assays. Supernatants derived from human PBMCs stimulations were assayed by ELISA for TNF and IL-6 (ThermoFisher Scientific; Waltham, MA, USA). Cytokine and chemokine expression profiles (e.g., IFNγ, IL-9, IL-10, IL-12 (p70), IL-13, IL-1β, IL-23, IL-27, IL-28A, IL-33, IL-6, MIP-3α/CCL20, and TNF) in cell culture supernatants were measured using a customized Milliplex® Human Th17 Magnetic Bead Panel according to the manufacturer's instructions (Millipore, Chicago, IL, USA). Assays were read and analyzed on the Luminex® 100/200TM System and xPOTENT® software (Luminex, Austin, TX). A minimum threshold was set at the minimum detectable concentration for each individual assay, defined as three standard deviations above the mean background.
as §2, with “Stimulation plates were prepared by transferring 0.66 μl of DMSO-dissolved compounds (30 or 7.5 mM) to each well of a round bottom 96-well plate.” left out, “200 μl of the cell suspension were transferred to each well resulting in a final compound concentration of 100 or 25 μM.” left out

[3] = test system: NF-κB reporter THP1 cells; assay: NF-kB-induced luminescence HTS in THP1-Lucia cells (384-well); type: cell-based, human; details: ranked at 3.3 μM; ~200,000 compounds tested
Source text: HTS Overview: To identify immunomodulators/adjuvants that robustly activate human immune cells, ˜200,000 small molecules were screening in a THP1 cell-based assay. The chemical libraries screened included known bioactive and commercial libraries from various sources including commercial libraries such as ChemDiv, ChemBridge, and Asinex. All libraries were owned and provided by the Institute of Chemistry and Cell Biology (ICCB)—Longwood (Harvard Medical School). The project primary screen incorporated two distinct arms: a) a luciferase-based screen which corresponds to the relative activation of the NF-κB reporter; and b) a fluorescence-based screen, corresponding to the phenotypic adherence, a distinct marker of cell activation, of the human monocytic THP-1 cell lines. Described herein are small molecules identified in the screen that induce NF-kB activity based on a luciferase-based THP-1 cell screen.
as §1
NF-kB-induced Luminescence Assay. THP1-Lucia cells between passage 15 and 18 and suspended in culture medium were dispensed into 384-well black clear-bottom plates (Corning 3712) at 30,000 cells/30 μl/well using a Combi liquid dispenser. To allow comparison to a benchmark small molecule with known immune stimulating activity, cells at the same concentration were stimulated with 50 μM R848, a TLR7/8 agonist, in 0.3% DMSO and added to every other well of column 24, which was left empty of cells, by multichannel pipette at the same volume. Five μl of 700 nM Phorbol myristate acetate (PMA) in THP1 culture media and 2.3% DMSO, a known peripheral blood cell mitogen, was added to every other well of column 23 by multichannel pipette (final concentration in well: 100 nM in 0.3% DMSO). Five μl of THP1 culture media with 2.3% DMSO was added to the remaining wells of column 23 by multichannel pipette (final concentration 0.3% DMSO). One hundred nl aliquots of library compounds diluted in 100% DMSO were transferred from their original 384-well plates to the assay plates using a Seiko pin transfer machine. Each library plate was pinned in duplicate, yielding two assay plates with identical conditions for comparison. Plates were then incubated for 24 hours at 37 C with 5% CO2 in humid conditions. Following incubation, 10 μL of supernatant was removed from each well and transferred to a white plate (Corning 3570) using a Vprep liquid transfer machine. 10 μL of recombinant Lucia protein (Invivogen) diluted 1:2000 in THP1 culture media was added to empty well 24P. Using a Combi liquid dispenser, 50 μL/well of Quanti-Luc substrate (Invivogen) diluted 1:3 in sterile water was added to the assay plate. Immediately after adding the substrate, the luminescence was read using a PerkinElmer Envision plate reader.

Structure (SMILES) | THP1 cells (relative luminescence units, N = 4) Comp at 25 uM [1] | THP1 cells (relative luminescence units, N = 4) Comp at 100 uM [1] | Adult PBMCs (median ng/ml) IL-6 (N = 7) [2] | Adult PBMCs (median ng/ml) TNFa (N = 13) [2] | Efficacy in activating NF-κB in THP1 cells (screening hits) [3]
CCOC(=O)c1c(NC(=S)Nc2ccc(OC)cc2)sc2c1CCCC2 [TM-C, reference compound] | 3440 relative luminescence units | 4031 relative luminescence units | 0.5145 ng/mL | 0.01575 ng/mL | –
CCOC(=O)c1c(NC(=O)CN2CCC3(CC2)OCCO3)sc(C)c1C [Compound 005] | – | – | – | – | most effective
CNC(=O)c1c(NC(=O)c2ccc(OC)cc2)sc2c1CCC2 [Compound 80.8] | 258.5 relative luminescence units | 2552 relative luminescence units | 0.008 ng/mL | 0.008 ng/mL | –
CNC(=O)c1c(NC(=O)c2ccc(C#N)cc2)sc2c1CCC2 [Compound 80.11] | 1108 relative luminescence units | 2420 relative luminescence units | 0.0225 ng/mL | 0.008 ng/mL | –
COC(=O)c1c(NC(=O)Nc2ccccc2)sc2c1CCCC2 [TM-B, reference compound] | 1204 relative luminescence units | 681 relative luminescence units | 0.057 ng/mL | 0.008 ng/mL | –
CNC(=O)c1c(NC(=O)c2ccc(Cl)cc2)sc2c1CCC2 [Compound 80.5] | 436.5 relative luminescence units | 777 relative luminescence units | 0.008 ng/mL | 0.008 ng/mL | –
COC(=O)c1c(NC(=O)CN2CCN(C(=O)c3ccco3)CC2)sc2c1CCC2 [Compound 003] | – | – | – | – | most effective
CCN(CC)S(=O)(=O)c1ccc(C(=O)Nc2sc3c(c2C(=O)NC)CCC3)cc1 [Compound 80.6] | 2505 relative luminescence units | 2816 relative luminescence units | – | – | –
COc1ccc(CNC(=O)CN(c2ccc(Br)cc2)S(=O)(=O)c2ccccc2)cc1 [TM-F, reference compound] | 348.5 relative luminescence units | 2012 relative luminescence units | 0.008 ng/mL | 0.008 ng/mL | –
CNc1ccc([N+](=O)[O-])cc1-n1cnc(-c2ccc([N+](=O)[O-])cc2)c1 [TM-A, reference compound] | 8777 relative luminescence units | 13092 relative luminescence units | 2.154 ng/mL | 0.092 ng/mL | –
Cc1ccc(N(CC(=O)NCc2ccc(Cl)cc2)S(C)(=O)=O)cc1 [TM-E, reference compound] | 320 relative luminescence units | 428.5 relative luminescence units | 0.008 ng/mL | 0.008 ng/mL | –
CNC(=O)c1c(NC(=O)c2ccc(S(=O)(=O)N(C)C)cc2)sc2c1CCCCC2 [Compound 80.13] | 348 relative luminescence units | 11361 relative luminescence units | 0.008 ng/mL | 0.008 ng/mL | –
CNC(=O)c1c(NC(=O)c2ccc(S(=O)(=O)N3CCCCC3)cc2)sc(C)c1C [Compound 80.14] | 517 relative luminescence units | 1475 relative luminescence units | 0.008 ng/mL | 0.008 ng/mL | –
